Data published in patent publication US8309577B2, “Quinuclidine compounds as α-7 nicotinic acetylcholine receptor ligands” (Bristol-Myers Squibb Company, priority 2008, dated 2012).
Where two headings read alike, the source gives them in different places.

Biological target: T1, α-7 nicotinic acetylcholine receptor channel expressed in HEK 293 cells (Rattus norvegicus, UniProt Q05941)
T1 construct: expressed in transfected cells
Test: Ca2+-sensitive fluorescence-based FLIPR assay, α7 nicotinic ACh receptor channel function (agonist)
Type: cell-based
Experimental: I) α7 Nicotinic Acetycholine Receptor Binding. Membranes were prepared for binding using HEK293 cells stably expressing the rat α7 nicotinic acetycholine receptor (rat α7 nAChR). Cells were homogenized at 4° C. in hypotonic lysis buffer consisting of 10 mM Tris (pH 7.4), 5 mM EDTA and protease inhibitors and centrifuged at 32000×g for 20 minutes. The pellet was washed once in membrane wash buffer consisting of 50 mM Tris (pH 7.4), 1 mM EDTA and protease inhibitors and centrifuged at 32000×g for 20 minutes. This pellet was then resuspended in assay buffer consisting 50 mM KH2PO4 (pH 7.4 at 25° C.), 1 mM EDTA, 0.005% Triton-X 100 and 0.1% (v/v) Sigma Protease Inhibitor Cocktail. Aliquots were then frozen in dry ice/ethanol and kept at −80° C. until the day of the assay. II) A Ca^2+-Sensitive, Fluorescence-Based Assay α-7 for Nicotinic Acetylcholine Receptor Channel Function In Mammalian Cells (“FLIPR”). Summary: Lead compounds are evaluated for agonist activity at […], α3β4, […], and α1β1δ1ε sub-types of nicotinic ACh receptor ion channels expressed in mammalian HEK 293 cells. Agonist potency and efficacy values are determined from kinetic fluorescence Ca^2+ influx measurements made using a 384 well FLIPR (Fluorescence Image Plate Reader). […] In this assay, channel expressing HEK cell lines seeded in 384 well assay plates are loaded with a membrane permeant fluorescent Ca^2+ indicator dye, whose 510 nm green emission signal increases in response to elevation of intracellular Ca^2+ concentration. The basal fluorescence from the cells is monitored in real time, followed by the acute addition of test compounds.
Materials and Methods: Reagents: The acetomethoxy (AM) ester of the Ca^2+ indicator dye Fluo-4 was obtained from InVitrogen, (Carlsbad, Calif.). Acetylcholine and all buffer constituents were purchased from Sigma Chemical Company, St. Louis, Mo. G418 and Minimal Essential Medium were purchased from InVitrogen Life Technologies, Carlsbad, Calif. Fetal bovine serum was purchased from (InVitrogen, Carlsbad, Calif.).
Cell Culture: HEK-293 cells were grown in Minimal Essential Medium containing 10% (v/v) fetal bovine serum at 37° C. in a 5% CO2 incubator. HEK-293 cells stably expressing the ion channels were grown in the same medium with the addition of 500 μg/ml G418.
Ca^2+ flux assays of Ca^2+ channels expressed in HEK-293 cells: HEK-293 cells expressing the ion channels of interest were plated in 384 well, black-walled, clear-bottomed, poly-D-lysine coated plates at a density of ˜20,000 cells/well in 20 μl of Minimal Essential Medium containing 10% (v/v) fetal bovine serum and incubated for 2 days at 29° C. in a 5% CO2 incubator. Prior to assay, cells were loaded with the Fluo-4 AM ester. […] Dye loading was allowed to proceed for 90 minutes at room temperature at which time the dye loading solution was removed and replaced with 40 μl/well of Hanks buffer. Cells loaded with dye were loaded onto a FLIPR384 (Molecular Devices, Sunnyvale, Calif.). Fluo-4 dye was excited using the 488 nm line of an argon laser. Emission was filtered using a 540+/−30 nm bandpass filter. For evaluation of the effects of test compounds using the Ca^2+ flux assay, compounds to be tested were provided in assay ready plates. For nicotinic receptor ion channel expressing cells, the assay was initiated by the addition of 20 μl/well of Hanks buffer containing test compounds. For all assays, data were collected at 1 Hz for 10 seconds (baseline), at which time the compound containing stimulus buffers are added, and further measurements collected at 0.33 Hz for 3 min.
Data Analysis: The statistical robustness of the nicotinic receptor Ca^2+ flux assays is determined from blanks and totals wells. […] The raw fluorescence units data files generated on the FLIPR plate reader are automatically exported and processed by in-house data analysis tools.

[1] = FLIPR α7 activity rating (EC50, nM), Table 1, HEK 293 cells, agonist Ca2+ flux
[2] = FLIPR α7 (EC50, nM), Table 1, HEK 293 cells, agonist Ca2+ flux

T1 sequence (Q05941 23-502): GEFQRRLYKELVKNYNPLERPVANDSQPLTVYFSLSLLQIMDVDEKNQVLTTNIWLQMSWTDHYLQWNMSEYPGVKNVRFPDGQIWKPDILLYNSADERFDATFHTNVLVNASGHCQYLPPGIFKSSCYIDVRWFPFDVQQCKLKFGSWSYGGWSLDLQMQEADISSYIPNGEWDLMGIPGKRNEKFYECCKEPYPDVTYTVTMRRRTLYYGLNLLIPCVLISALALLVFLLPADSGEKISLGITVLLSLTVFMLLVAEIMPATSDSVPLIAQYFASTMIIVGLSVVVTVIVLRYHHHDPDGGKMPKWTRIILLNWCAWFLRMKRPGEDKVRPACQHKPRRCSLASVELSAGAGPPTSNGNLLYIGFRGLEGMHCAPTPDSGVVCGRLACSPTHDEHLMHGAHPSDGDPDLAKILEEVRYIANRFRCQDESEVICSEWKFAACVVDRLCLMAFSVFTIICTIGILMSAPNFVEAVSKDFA

For Oc1ccc2nc(NC3=NCC4(CN5CCC4CC5)O3)sc2c1 (single isomer, unassigned) [Example 13a], which EC50 [1] is on record?
Its EC50 is 100 to 1000 nM.

For Oc1ccc2nc(NC3=NCC4(CN5CCC4CC5)O3)sc2c1 (single isomer, unassigned) [Example 13b], which EC50 [1] is on record?
The EC50 was less than 100 nM.

C1CCc2sc(NC3=NCC4(CN5CCC4CC5)O3)nc2C1 (single isomer, unassigned) [Example 14b] was tested. Which EC50 [1] did it give?
The EC50 was 100 to 1000 nM.

Which EC50 [2] does the source give for CC(C)c1csc(NC2=NCC3(CN4CCC3CC4)O2)n1 (single isomer, unassigned) [Example 15a] here?
The EC50 was 6350 nM.

And the EC50 [1]?
The EC50 was 1000 to 100000 nM.

With CC(C)c1csc(NC2=NCC3(CN4CCC3CC4)O2)n1 (single isomer, unassigned) [Example 15b] as the compound, how does the EC50 [1] read?
The EC50 was 100 to 1000 nM.

For c1csc(NC2=NCC3(CN4CCC3CC4)O2)n1 (single isomer, unassigned) [Example 16a], which EC50 [2] is on record?
Its EC50 is 3170 nM.

And the EC50 [1]?
Its EC50 is 1000 to 100000 nM.

For c1csc(NC2=NCC3(CN4CCC3CC4)O2)n1 (single isomer, unassigned) [Example 16b], which EC50 [1] is on record?
Its EC50 is 100 to 1000 nM.

Which EC50 [1] does the source give for COc1ccc(-c2csc(NC3=NCC4(CN5CCC4CC5)O3)n2)cc1 (single isomer, unassigned) [Example 20a] here?
Its EC50 is 100 to 1000 nM.

COc1ccc(-c2csc(NC3=NCC4(CN5CCC4CC5)O3)n2)cc1 (single isomer, unassigned) [Example 20b] was tested. Which EC50 [2] did it give?
The EC50 was 318 nM.

What about the EC50 (read-out: FLIPR α7 activity rating (EC50), Table 1, HEK 293 cells, agonist Ca2+ flux) of the same compound?
The EC50 was 100 to 1000 nM.

Which results are given for O=C(c1ccc2nc(NC3=NCC4(CN5CCC4CC5)O3)sc2c1)N1CCCC1 (stereo not shown) [Example 3]?
EC50: 3840 nM; EC50 [1]: 1000 to 100000 nM

COc1ccc2nc(NC3=NCC4(CN5CCC4CC5)O3)sc2c1 (stereo not shown) [Example 5, N-(6-Methoxybenzo[d]thiazol-2-yl)-4H-1′-azaspiro[oxazole-5,3′-bicyclo[2.2.2]octan]-2-amine] was tested. Which EC50 [1] did it give?
The EC50 was 100 to 1000 nM.

For Cc1cccc2sc(NC3=NCC4(CN5CCC4CC5)O3)nc12 (stereo not shown) [Example 6, N-(4-Methylbenzo[d]thiazol-2-yl)-4H-1′-azaspiro[oxazole-5,3′-bicyclo[2.2.2]octan]-2-amine], which EC50 [1] is on record?
The EC50 was 100 to 1000 nM.

With Clc1ccc2nc(NC3=NCC4(CN5CCC4CC5)O3)sc2c1 (stereo not shown) [Example 9, N-(6-Chlorobenzo[d]thiazol-2-yl)-4H-1′-azaspiro[oxazole-5,3′-bicyclo[2.2.2]octan]-2-amine] as the compound, how does the EC50 [1] read?
The EC50 was 100 to 1000 nM.

Which EC50 [1] does the source give for Cn1c(NC2=NCC3(CN4CCC3CC4)O2)nc2ccccc21 (stereo not shown) [Example 10, N-(1-methyl-1H-benzo[d]imidazol-2-yl)-4H-1′-azaspiro[oxazole-5,3′-bicyclo[2.2.2]octan]-2-amine] here?
The EC50 was 100 to 1000 nM.

With CCOc1ccc2nc(NC3=NCC4(CN5CCC4CC5)O3)sc2c1 (stereo not shown) [Example 11, N-(6-Ethoxybenzo[d]thiazol-2-yl)-4H-1′-azaspiro[oxazole-5,3′-bicyclo[2.2.2]octan]-2-amine] as the compound, how does the EC50 [1] read?
The EC50 was 100 to 1000 nM.

For Cc1ccc2nc(NC3=NCC4(CN5CCC4CC5)O3)sc2c1 (stereo not shown) [Example 12, N-(6-Methylbenzo[d]thiazol-2-yl)-4H-1′-azaspiro[oxazole-5,3′-bicyclo[2.2.2]octan]-2-amine], which EC50 [1] is on record?
The EC50 was 100 to 1000 nM.

How did the EC50 [1] turn out when CC(=O)Nc1ccc2nc(NC3=NC[C@@]4(CN5CCC4CC5)O3)sc2c1 [Example 21, (R)—N-(2-(4H-1′-Azaspiro[oxazole-5,3′-bicyclo[2.2.2]octane]-2-ylamino)benzo[d]thiazol-6-yl)acetamide] was run?
Its EC50 is less than 100 nM.

How did the EC50 [1] turn out when COc1ccc2nc(NC3=NC[C@@]4(CN5CCC4CC5)O3)nn2c1 [Example 24, (R)—N-(6-Methoxy-[1,2,4]-triazolo[1,5-a]pyridin-2-yl)-4H-1′-azaspiro[oxazole-5,3′-bicyclo[2.2.2]octan]-2-amine] was run?
The EC50 was less than 100 nM.

What does the source list for FC(F)(F)c1cnc(NC2=NC[C@@]3(CN4CCC3CC4)O2)cn1 [Example 25, (R)—N-(5-(Trifluoromethyl)pyrazin-2-yl)-4H-1′-azaspiro[oxazole-5,3′-bicyclo[2.2.2]octan]-2-amine]?
EC50 [2]: 510 nM; EC50 [1]: 100 to 1000 nM

Fc1ccc2c(NC3=NC[C@@]4(CN5CCC4CC5)O3)n[nH]c2c1 [Example 26, (R)—N-(6-Fluoro-1H-indazol-3-yl)-4H-1′-azaspiro[oxazole-5,3′-bicyclo[2.2.2]octan]-2-amine] was tested. Which EC50 [1] did it give?
The EC50 was less than 100 nM.

For c1ccc(-c2cncc(NC3=NC[C@@]4(CN5CCC4CC5)O3)c2)cc1 [Example 28, (R)—N-(5-Phenylpyridin-3-yl)-4H-1′-azaspiro[oxazole-5,3′-bicyclo[2.2.2]octan]-2-amine], which EC50 is on record?
Its EC50 is 4010 nM.

What about the EC50 [1] of the same compound?
Its EC50 is 1000 to 100000 nM.

For c1ccc(-c2cc(NC3=NC[C@@]4(CN5CCC4CC5)O3)ccn2)cc1 [Example 29, (R)—N-(2-Phenylpyridin-4-yl)-4H-1′-azaspiro[oxazole-5,3′-bicyclo[2.2.2]octan]-2-amine], which EC50 [1] is on record?
The EC50 was 100 to 1000 nM.

Which EC50 [1] does the source give for c1ccc(-c2cccc(NC3=NC[C@@]4(CN5CCC4CC5)O3)n2)cc1 [Example 30, (R)—N-(6-Phenylpyridin-2-yl)-4H-1′-azaspiro[oxazole-5,3′-bicyclo[2.2.2]octan]-2-amine] here?
Its EC50 is 100 to 1000 nM.

Cn1nc(NC2=NC[C@@]3(CN4CCC3CC4)O2)c2ccc(OC(F)F)cc21 [Example 31, (R)—N-(6-(Difluoromethoxy)-1-methyl-1H-indazol-3-yl)-4H-1′-azaspiro[oxazole-5,3′-bicyclo[2.2.2]octan]-2-amine] was tested. Which EC50 [1] did it give?
Its EC50 is 100 to 1000 nM.

For FC(F)Oc1ccc2nc(NC3=NC[C@@]4(CN5CCC4CC5)O3)sc2n1 [Example 32, (R)—N-(5-(Difluoromethoxy)thiazolo[5,4-b]pyridin-2-yl)-4H-1′-azaspiro[oxazole-5,3′-bicyclo[2.2.2]octan]-2-amine], which EC50 [1] is on record?
Its EC50 is 100 to 1000 nM.

For c1nc(N2CCCC2)cnc1NC1=NC[C@@]2(CN3CCC2CC3)O1 [Example 34, (R)—N-(5-(Pyrrolidin-1-yl)pyrazin-2-yl)-4H-1′-azaspiro[oxazole-5,3′-bicyclo[2.2.2]octan]-2-amine], which EC50 [1] is on record?
Its EC50 is 1000 to 100000 nM.

O=C1CCCN1c1cnc(NC2=NC[C@@]3(CN4CCC3CC4)O2)cn1 [Example 35, (R)-1-(5-(4H-1′-Azaspiro[oxazole-5,3′-bicyclo[2.2.2]octane]-2-ylamino)pyrazin-2-yl)pyrrolidin-2-one] was tested. Which EC50 did it give?
The EC50 was 4030 nM.

And the EC50 [1]?
The EC50 was 1000 to 100000 nM.

For c1cncc(-c2cnc(NC3=NC[C@@]4(CN5CCC4CC5)O3)cn2)c1 [Example 36, (R)—N-(5-(Pyridin-3-yl)pyrazin-2-yl)-4H-1′-azaspiro[oxazole-5,3′-bicyclo[2.2.2]octan]-2-amine], which EC50 [1] is on record?
Its EC50 is 100 to 1000 nM.

Which EC50 [1] does the source give for COc1ccc(-c2cnc(NC3=NC[C@@]4(CN5CCC4CC5)O3)cn2)cn1 [Example 37, (R)—N-(5-(6-Methoxypyridin-3-yl)pyrazin-2-yl)-4H-1′-azaspiro[oxazole-5,3′-bicyclo[2.2.2]octan]-2-amine] here?
The EC50 was 1000 to 100000 nM.

How did the EC50 [1] turn out when COc1ccc2nc(NC3=NC[C@@]4(CN5CCC4CC5)O3)cnc2c1 [Example 38, (R)—N-(6-Methoxyquinoxalin-2-yl)-4H-1′-azaspiro[oxazole-5,3′-bicyclo[2.2.2]octan]-2-amine] was run?
Its EC50 is less than 100 nM.

How did the EC50 [1] turn out when FC(F)Oc1cnc(NC2=NC[C@@]3(CN4CCC3CC4)O2)nc1 [Example 39, (R)—N-(5-(Difluoromethoxy)pyrimidin-2-yl)-4H-1′-azaspiro[oxazole-5,3′-bicyclo[2.2.2]octan]-2-amine] was run?
The EC50 was less than 100 nM.

Cc1cnc(NC2=NC[C@@]3(CN4CCC3CC4)O2)nc1C [Example 40, (R)—N-(4,5-Dimethylpyrimidin-2-yl)-4H-1′-azaspiro[oxazole-5,3′-bicyclo[2.2.2]octan]-2-amine] was tested. Which EC50 [1] did it give?
Its EC50 is less than 100 nM.

With COc1ccc(-c2cc(NC3=NC[C@@]4(CN5CCC4CC5)O3)ncn2)cc1 [Example 42, (R)—N-(6-(4-Methoxyphenyl)pyrimidin-4-yl)-4H-1′-azaspiro[oxazole-5,3′-bicyclo[2.2.2]octan]-2-amine] as the compound, how does the EC50 [1] read?
The EC50 was less than 100 nM.
